Experimental data from BindingDB's records for doi:10.1074/jbc.M111.274068 (Astrazeneca, 2011).

Assays:
Settings in all cases: pH 7.35
[1] = target: Bifunctional protein GlmU (Staphylococcus aureus (strain COL), UniProt Q5HIH6); test: Inhibition Assay
Source text: (§1) Inhibition assay using GlmU bifuncation enzyme with various bacterial strains.

[2] = target: Bifunctional protein GlmU (Haemophilus influenzae (strain ATCC 51907 / DSM 11121 / KW20 / Rd), UniProt P43889); test: Inhibition Assay
Source text: as §1

[3] = target: Bifunctional protein GlmU (Streptococcus pneumoniae (strain ATCC BAA-255 / R6), UniProt Q8DQ18); test: Inhibition Assay
Source text: as §1

[4] = target: Bifunctional protein GlmU (Escherichia coli (strain K12), UniProt P0ACC7); test: Inhibition Assay
Source text: as §1

[5] = target: Bifunctional protein GlmU (Escherichia coli) (UniProt P0ACC7); test: Inhibition assay using GlmU bifuncation enzyme with various bacterial strains.
Bifunctional protein GlmU (Escherichia coli), sequence (P0ACC7 whole entry, looked up): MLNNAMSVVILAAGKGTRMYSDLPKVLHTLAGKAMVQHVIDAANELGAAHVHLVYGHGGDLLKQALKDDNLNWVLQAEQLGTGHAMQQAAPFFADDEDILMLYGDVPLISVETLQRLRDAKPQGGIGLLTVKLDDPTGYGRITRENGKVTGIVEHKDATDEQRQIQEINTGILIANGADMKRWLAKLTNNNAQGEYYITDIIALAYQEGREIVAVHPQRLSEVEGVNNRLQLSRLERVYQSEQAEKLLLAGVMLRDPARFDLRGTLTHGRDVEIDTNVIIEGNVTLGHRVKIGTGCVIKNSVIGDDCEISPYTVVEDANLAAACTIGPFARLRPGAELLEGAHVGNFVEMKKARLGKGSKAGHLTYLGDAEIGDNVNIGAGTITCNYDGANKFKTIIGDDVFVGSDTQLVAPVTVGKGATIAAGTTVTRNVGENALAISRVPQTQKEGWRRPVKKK

Bifunctional protein GlmU (Streptococcus pneumoniae (strain ATCC BAA-255 / R6), UniProt Q8DQ18), sequence (Q8DQ18 whole entry): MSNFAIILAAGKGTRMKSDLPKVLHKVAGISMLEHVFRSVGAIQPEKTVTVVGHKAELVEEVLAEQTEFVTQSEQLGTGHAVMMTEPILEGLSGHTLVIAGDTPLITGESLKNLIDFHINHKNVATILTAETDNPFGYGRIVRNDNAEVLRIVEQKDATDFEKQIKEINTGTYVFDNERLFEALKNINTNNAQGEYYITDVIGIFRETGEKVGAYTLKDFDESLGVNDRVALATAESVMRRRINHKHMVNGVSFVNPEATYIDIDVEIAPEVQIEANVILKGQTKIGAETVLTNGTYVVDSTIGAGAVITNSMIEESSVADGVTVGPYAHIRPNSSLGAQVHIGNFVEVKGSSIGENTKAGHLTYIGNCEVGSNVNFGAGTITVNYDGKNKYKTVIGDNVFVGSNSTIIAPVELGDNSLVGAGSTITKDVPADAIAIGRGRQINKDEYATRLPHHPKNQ
Bifunctional protein GlmU (Haemophilus influenzae (strain ATCC 51907 / DSM 11121 / KW20 / Rd), UniProt P43889), sequence (P43889 whole entry): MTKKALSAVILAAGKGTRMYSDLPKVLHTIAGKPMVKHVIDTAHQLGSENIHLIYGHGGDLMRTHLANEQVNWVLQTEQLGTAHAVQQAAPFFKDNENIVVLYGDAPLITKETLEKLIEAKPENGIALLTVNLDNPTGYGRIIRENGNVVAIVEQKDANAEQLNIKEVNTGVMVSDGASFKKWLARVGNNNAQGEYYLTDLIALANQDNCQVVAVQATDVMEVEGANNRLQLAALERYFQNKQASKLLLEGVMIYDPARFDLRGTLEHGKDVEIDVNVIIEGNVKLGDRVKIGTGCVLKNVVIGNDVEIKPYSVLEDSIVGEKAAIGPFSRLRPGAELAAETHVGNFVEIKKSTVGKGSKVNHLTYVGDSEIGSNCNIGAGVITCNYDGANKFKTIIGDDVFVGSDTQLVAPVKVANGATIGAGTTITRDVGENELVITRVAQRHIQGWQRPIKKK
Bifunctional protein GlmU (Escherichia coli (strain K12), UniProt P0ACC7), sequence (P0ACC7 whole entry): as the sequence (P0ACC7 whole entry, looked up) above

SMILES	IC50 [1] [µM]	IC50 [2] [µM]	IC50 [3] [µM]	IC50 [4] [µM]	Kd [5] [µM]
COc1cc(O)c(S(=O)(=O)N2c3ccccc3CCC2C)cc1NC(=O)CCC(=O)O (stereo not drawn) [Sulfonamide, 4]	> 200	0.28	4.7	0.058	–
COc1cc(OC)c(S(=O)(=O)N2c3ccccc3CC2C)cc1NC(C)=O (stereo not drawn)	> 200	7.8	> 200	2.1	–

The remaining compounds from weak to strong by IC50 [2], led by results:

IC50 [1] [µM]	IC50 [2] [µM]	IC50 [3] [µM]	IC50 [4] [µM]	Kd [5] [µM]	SMILES
–	6.4	> 200	–	1.9	COc1cc(OC)c(S(=O)(=O)N(C)c2ccccc2)cc1NC(C)=O
> 200	0.4	40	–	–	COc1cc(OC)c(S(=O)(=O)N(c2ccccc2)c2ccc(N)cc2)cc1NC(=O)CCC(=O)O [Sulfonamide, 3]
> 200	0.023	15	0.007	–	COc1cc(OC)c(S(=O)(=O)N2c3ccccc3Oc3ccccc32)cc1NC(=O)CCC(=O)O [Sulfonamide, 5]
